# Data reported in patent US5135952A, “Antiinflammatory and/or antiallergic methods” (Senju Pharmaceutical Co., ltd., priority 1989, dated 1992).
# Legend:
# male ddY mice = experiment: Intravenous Acute Toxicity Study; type: in vivo, mouse (male ddY); details: i.v.; 100, 200, 400, 800 and 1,600 mg/kg; seventy-two-hour observation; groups of 5
# Procedure: Intravenous Acute Toxicity Study
# The intravenous acute toxicity study of DCE-GS was conducted in male ddY mice, weighing about 20 g, in groups of 5. The doses were 100, 200, 400, 800 and 1,600 mg/kg (common ratio 2). All the injections were adjusted with 1N sodium hydrochloride to pH 7.
# [1] = test system: rat peritoneal mast cells; experiment: Inhibitory Effect on the Release of Histamine from Rat Peritoneal Exudate Cells (Compound 48/80-induced); type: cell-based, rat (male SD); details: for % Release (histamine): mean ± S.E., boiled control specimen = 100%, control 75.0 ± 6.7
# Procedure: Inhibitory Effect on the Release of Histamine from Rat Peritoneal Exudate Cells
# (1) Preparation of rat peritoneal cell suspension
# Male SD rats weighing 250 to 280 g were used. The rat peritoneal cells were collected and isolated according to the method of Sullivan et al. First, the rat was bled to death by decapitation and immediately the hair of the abdomen was shaved, the skin was incised a few centimeters, and 10 ml of mast cell medium (MCM) was injected into the peritoneal cavity using a 18-G needle while picking up the muscle with tweezers, followed by 90-sec gentle massage. Then, the abdomen was opened to collect as much ascites as possible using a Terumo syringe. The ascites contaminated with blood was not used in the experiment. The ascites was layered in a polycarbonate tube containing 2 ml of 40% Ficoll 400 (Pharmacia) dissolved in MCM, allowed to stand at room temperature for 30 minutes, and centrifuged at 700 rpm at 4° C. for 10 minutes. Then, the sediment in the upper layer of Ficoll 400 was pipetted and washed three times with about 7 ml of MCM. The cells were counted with a Burker-Turk cytometer and using MCM as a diluent, a cell suspension of about 10^5 cells/ml (rat peritoneal cell suspension) was prepared. Mast cells were identified by staining intracellular granules with 0.05% toluidine blue.
# (2) Release of histamine from mast cells
# After 0.8 ml of rat peritoneal cell suspension was preincubated at 37° C. for 10 minutes, 0.1 ml of the test drug was added. The system was incubated for 5 minutes, at the end of which time 0.1 ml of 10 μg/ml of Compound 48/80 (Sigma) in physiological saline was added. After 10 minutes' incubation, the reaction mixture was cooled in ice-water for 10 minutes to terminate the reaction and centrifuged at 700 rpm at 4° C. for 5 minutes. Then, histamine in the supernatant was determined by HPLC in accordance with the method of Shore et al. as partially modified.
# platelet = details: previously discovered by the inventors (Japanese Kokai 63-8337/1988; Japanese Application 1-79956/1989); cited from earlier work
# [2] = test system: carrageenan-induced conjunctival edema; experiment: Effect on Rat Carrageenan-Induced Conjunctival Edema; type: in vivo, rat (male Wistar); details: for effect on rat carrageenan-induced conjunctival edema, in words: DCE-GS 3, 10, 30 mg/kg i.v., ester derivatives and GSH 30 mg/kg; for Edema weight / % Inhibition (edema weight): 3 hours, n = 10; for Edema weight: mean ± S.E.
# Procedure: Effect on Rat Carrageenan-Induced Conjunctival Edema Male Wistar rats weighing about 130 g were used in the experiment. S-(α,β-Dicarboxyethyl)glutathione (hereinafter referred to as DCE-GS) dissolved in physiological saline and adjusted with sodium hydrochloride to pH 7 was administered in doses of 3, 10 and 30 mg/kg to rats through the caudal vein (control group: physiological saline). […] One minute later, 50 μl of 1% carrageenan solution was injected beneath the palpebral conjunctiva of the rat under pentobarbital anesthesia. After three hours, each rat was sacrificed and conjunctival edema was isolated and weighted.
# [3] = test system: passive anaphylaxis of the back of the rat; experiment: Effect on Passive Anaphylaxis of the Back of the Rat; type: in vivo, rat (male Wistar); details: for Area, Inhibition (%) / Dye, Inhibition (%) / Area (of stain) / Dye: 30 minutes; for Area (of stain) / Dye: mean ± S.E., n = 4 or 5; for Area (of stain): saline 926 ± 65; for Dye: saline 767 ± 87
# Procedure: Effect on Passive Anaphylaxis of the Back of the Rat
# Male Wistar rats weighing about 130 g were used in the experiment. The back hair of each rat was clipped with clippers. The rat antiserum was injected intradermally at the back of the rat. After three days, DCE-GS was administered in doses of 3, 10 and 30 mg/kg (physiological saline to controls) into the caudal vein and after one minute 1 ml of a 50:50 (v/v) mixture of the antigen 1% ovalbumin and 2% Evans blue was administered intravenously to induce passive anaphylaxis. After 30 minutes, the rat was sacrificed and the stained area was determined. The pertinent area was removed and the dye was extracted with 20 ml of formaldehyde for determination.
# [4] = previously discovered by the inventors (Japanese Kokai 63-8337/1988; Japanese Application 1-79956/1989); cited from earlier work
# hygroscopicity = type: physicochemical
# [5] = Table 2, 30 mg/kg, *p < 0.01, **p < 0.001 vs saline (73.7 ± 2.9)
compound,measurement,setting,value
"N[C@@H](CCC(=O)N[C@@H](CSC(CC(=O)O)C(=O)O)C(=O)NCC(=O)O)C(=O)O (stereo partly drawn) [DCE-GS, S-(α,β-Dicarboxyethyl)glutathione]",death / abnormal behavior,male ddY mice,neither death nor abnormal behavior
same,% Release (histamine),"[1]; 10^-3 M, n = 3",2.9 ± 3.4%
same,% Release (histamine),"[1]; 10^-4 M, n = 3",59.4 ± 6.2%
same,% Release (histamine),"[1]; 10^-5 M, n = 3",73.4 ± 6.5%
same,"inhibition of histamine release, in words",[1]; 10^-5 to 10^-3 M,inhibited histamine release concentration-dependently
same,inhibition at 1000 µM,"[1]; Rattus norvegicus, Mast cell, 10^-3 M, n = 3",96.1%
same,inhibition at 100 µM,"[1]; Rattus norvegicus, Mast cell, 10^-4 M, n = 3",20.8%
same,inhibition at 10 µM,"[1]; Rattus norvegicus, Mast cell, 10^-5 M, n = 3",2.1%
same,platelet aggregation inhibitory activity,platelet,platelet aggregation inhibitory activity
same,"effect on rat carrageenan-induced conjunctival edema, in words",[2],inhibited rat carrageenan-induced conjunctival edema dose-dependently
same,Edema weight,"[2]; Table 1, 3 mg/kg i.v. (caudal vein), *p < 0.001 vs saline (71.7 ± 3.6)",50.5 ± 1.9 mg
same,% Inhibition (edema weight),"[2]; Table 1, 3 mg/kg i.v.",29.6%
same,Edema weight,"[2]; Table 1, 10 mg/kg i.v., *p < 0.001 vs saline (71.7 ± 3.6)",44.9 ± 2.4 mg
same,% Inhibition (edema weight),"[2]; Table 1, 10 mg/kg i.v.",37.4%
same,Edema weight,"[2]; Table 1, 30 mg/kg i.v., *p < 0.001 vs saline (71.7 ± 3.6)",44.9 ± 2.2 mg
same,% Inhibition (edema weight),"[2]; Table 1, 30 mg/kg i.v.",37.4%
same,"Area, Inhibition (%)",[3]; 3 mg/kg i.v.,6.5%
same,"Dye, Inhibition (%)",[3]; 3 mg/kg i.v.,17.5%
same,Area (of stain),"[3]; 3 mg/kg i.v., *p < 0.05",866 ± 195 mm^2
same,Dye,[3]; 3 mg/kg i.v.,633 ± 111 μg/site
same,"Area, Inhibition (%)",[3]; 10 mg/kg i.v.,30.5%
same,"Dye, Inhibition (%)",[3]; 10 mg/kg i.v.,38.5%
same,Area (of stain),"[3]; 10 mg/kg i.v., **p < 0.01",644 ± 88 mm^2
same,Dye,[3]; 10 mg/kg i.v.,472 ± 98 μg/site
same,"Area, Inhibition (%)",[3]; 30 mg/kg i.v.,47.2%
same,"Dye, Inhibition (%)",[3]; 30 mg/kg i.v.,43.4%
same,Area (of stain),"[3]; 30 mg/kg i.v., ***p < 0.001",489 ± 47 mm^2
same,Dye,"[3]; 30 mg/kg i.v., *p < 0.05",434 ± 77 μg/site
same,"inhibition of area of stain and amount of dye, in words","[3]; 3, 10 and 30 mg/kg i.v.",inhibited both the area of stain and the amount of dye on the rat back dose-dependently
same,antihemogglutination activity,[4],antihemogglutination activity
"N[C@@H](CCC(=O)N[C@@H](CS)C(=O)NCC(=O)O)C(=O)O [GSH, glutathione, reference compound]","effect on rat carrageenan-induced conjunctival edema, in words",[2],no antiinflammatory effect
same,Edema weight,[2]; [5],74.8 ± 3.5 mg
same,% Inhibition (edema weight),"[2]; Table 2, 30 mg/kg",-1.5%
"S-(monoethyl-α,β-dicarboxyethyl)glutathione sodium [DCE-GS monoethyl ester sodium]",Edema weight,[2]; [5],58.5 ± 2.0 mg
same,% Inhibition (edema weight),"[2]; Table 2, 30 mg/kg",20.6%
"CCOC(=O)CC(SC[C@H](NC(=O)CC[C@H](N)C(=O)O)C(=O)NCC(=O)O)C(=O)OCC (stereo partly drawn) [DCE-GS diethyl ester sodium, S-(diethyl-α,β-dicarboxyethyl)glutathione sodium]",Edema weight,[2]; [5],49.7 ± 2.6 mg
same,% Inhibition (edema weight),"[2]; Table 2, 30 mg/kg",32.6%
"CCCCOC(=O)CC(SC[C@H](NC(=O)CC[C@H](N)C(=O)O)C(=O)NCC(=O)O)C(=O)OCCCC (stereo partly drawn) [DCE-GS di-n-butyl ester sodium, S-(di-n-butyl-α,β-dicarboxyethyl)glutathione sodium]",Edema weight,[2]; [5],60.9 ± 2.8 mg
same,% Inhibition (edema weight),"[2]; Table 2, 30 mg/kg",17.4%
same,hygroscopicity,hygroscopicity,hygroscopic
